The source made the active and inactive calls.
Key:
Assay type in all cases: functional
[1] = molecular target: T1, Heat shock factor protein 1 (Mus musculus, UniProt P38532); assay: decrease of HSF1-responsive luciferase luminescence – cell-based, NIH3T3, dose retest, confirmation (AID 2382);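 further: NIH3T3 fibroblasts with HSF1-driven luciferase reporter stressed by proteasome inhibitor MG132; luminescence from HSF1-driven luciferase expression after 8 hours of MG132 stress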
T1 sequence (P38532 whole entry): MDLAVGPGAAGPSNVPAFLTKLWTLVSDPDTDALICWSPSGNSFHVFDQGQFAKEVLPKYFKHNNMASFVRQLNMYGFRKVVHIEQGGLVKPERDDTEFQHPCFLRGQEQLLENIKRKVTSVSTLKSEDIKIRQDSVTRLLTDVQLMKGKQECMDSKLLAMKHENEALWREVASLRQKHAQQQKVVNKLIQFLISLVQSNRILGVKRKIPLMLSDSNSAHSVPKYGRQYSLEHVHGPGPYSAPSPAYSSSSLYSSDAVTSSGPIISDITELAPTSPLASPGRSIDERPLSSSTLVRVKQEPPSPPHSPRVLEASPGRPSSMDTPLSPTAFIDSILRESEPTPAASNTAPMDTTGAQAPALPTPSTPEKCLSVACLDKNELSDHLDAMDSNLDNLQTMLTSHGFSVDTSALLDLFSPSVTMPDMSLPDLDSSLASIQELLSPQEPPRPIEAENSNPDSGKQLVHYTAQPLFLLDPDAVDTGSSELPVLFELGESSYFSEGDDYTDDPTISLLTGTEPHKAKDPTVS

Vero = assay: viability of Vero cells under compound – cytotoxicity control for flavivirus capping enzyme inhibitors (AID 588742); settings: Chlorocebus sabaeus
Genome polyprotein = Genome polyprotein (dengue virus type 2, UniProt P29990); assay: flavivirus cap methylation enzyme inhibition – biochemical, confirmation dose response, primary screen (AID 588689)
Chain of Genome polyprotein (P29990 2492-3391 limits assumed): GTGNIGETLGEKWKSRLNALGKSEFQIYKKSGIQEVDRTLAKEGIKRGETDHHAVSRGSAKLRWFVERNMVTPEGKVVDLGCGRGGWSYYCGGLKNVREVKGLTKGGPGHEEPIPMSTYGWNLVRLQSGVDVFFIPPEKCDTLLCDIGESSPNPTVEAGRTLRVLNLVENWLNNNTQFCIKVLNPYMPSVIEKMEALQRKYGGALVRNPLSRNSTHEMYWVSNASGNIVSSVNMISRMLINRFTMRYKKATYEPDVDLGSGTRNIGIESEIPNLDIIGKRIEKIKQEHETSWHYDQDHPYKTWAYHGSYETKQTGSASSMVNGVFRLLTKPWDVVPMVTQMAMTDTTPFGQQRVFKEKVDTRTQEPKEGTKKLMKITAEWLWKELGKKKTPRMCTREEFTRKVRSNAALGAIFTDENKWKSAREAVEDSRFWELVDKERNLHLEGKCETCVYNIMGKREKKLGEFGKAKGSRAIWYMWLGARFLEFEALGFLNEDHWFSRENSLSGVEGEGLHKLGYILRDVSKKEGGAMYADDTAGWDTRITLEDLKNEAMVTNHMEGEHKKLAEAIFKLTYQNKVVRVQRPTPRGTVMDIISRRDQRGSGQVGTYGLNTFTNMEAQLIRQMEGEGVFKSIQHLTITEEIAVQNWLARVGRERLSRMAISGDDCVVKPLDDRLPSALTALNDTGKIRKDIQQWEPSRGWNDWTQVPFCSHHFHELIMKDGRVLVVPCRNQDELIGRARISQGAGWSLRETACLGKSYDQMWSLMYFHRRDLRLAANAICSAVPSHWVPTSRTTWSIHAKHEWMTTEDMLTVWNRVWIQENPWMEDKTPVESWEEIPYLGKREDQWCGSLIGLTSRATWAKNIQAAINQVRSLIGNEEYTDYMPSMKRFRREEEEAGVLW

[2] = molecular target: Tyrosine-protein kinase FRK (Homo sapiens, UniProt P42685);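 further: FRK tested as one member of a kinome panel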
[3] = molecular target: cAMP-dependent protein kinase catalytic subunit PRKX (Homo sapiens, UniProt P51817)
[4] = molecular target: Phosphorylase b kinase gamma catalytic chain, liver/testis isoform (Homo sapiens, UniProt P15735);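 further: PHKG2 measured as one member of a kinome-wide kinase panel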
[5] = molecular target: Receptor tyrosine-protein kinase erbB-4 (Homo sapiens, UniProt Q15303);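 further: ERBB4 member of a kinome-wide kinase profiling panel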
[6] = molecular target: Protein kinase C zeta type (Homo sapiens, UniProt Q05513);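 further: measured as one member of a broad kinase profiling panel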
Chain of Protein kinase C zeta type (Q05513 whole entry): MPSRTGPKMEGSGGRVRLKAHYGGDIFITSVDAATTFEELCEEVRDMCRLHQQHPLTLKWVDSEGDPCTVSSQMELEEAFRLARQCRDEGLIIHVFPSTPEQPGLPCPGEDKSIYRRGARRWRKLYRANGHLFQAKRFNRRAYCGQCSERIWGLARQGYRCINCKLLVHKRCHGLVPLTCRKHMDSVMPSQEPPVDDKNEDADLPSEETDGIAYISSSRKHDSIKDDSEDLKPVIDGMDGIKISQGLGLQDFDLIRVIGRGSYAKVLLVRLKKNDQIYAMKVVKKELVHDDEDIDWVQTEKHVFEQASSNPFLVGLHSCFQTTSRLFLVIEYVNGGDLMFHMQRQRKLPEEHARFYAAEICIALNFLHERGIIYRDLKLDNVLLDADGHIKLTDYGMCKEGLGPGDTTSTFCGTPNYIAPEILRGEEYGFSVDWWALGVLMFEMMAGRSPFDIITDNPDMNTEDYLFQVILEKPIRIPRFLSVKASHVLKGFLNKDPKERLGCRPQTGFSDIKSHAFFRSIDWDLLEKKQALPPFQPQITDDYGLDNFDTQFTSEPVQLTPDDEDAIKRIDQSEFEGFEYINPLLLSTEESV

[7] = molecular target: T2, Tyrosine-protein kinase receptor TYRO3 (Homo sapiens, UniProt Q06418);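 further: TYRO3 value obtained as one member of a kinome-wide profiling panel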
T2 sequence (Q06418 whole entry): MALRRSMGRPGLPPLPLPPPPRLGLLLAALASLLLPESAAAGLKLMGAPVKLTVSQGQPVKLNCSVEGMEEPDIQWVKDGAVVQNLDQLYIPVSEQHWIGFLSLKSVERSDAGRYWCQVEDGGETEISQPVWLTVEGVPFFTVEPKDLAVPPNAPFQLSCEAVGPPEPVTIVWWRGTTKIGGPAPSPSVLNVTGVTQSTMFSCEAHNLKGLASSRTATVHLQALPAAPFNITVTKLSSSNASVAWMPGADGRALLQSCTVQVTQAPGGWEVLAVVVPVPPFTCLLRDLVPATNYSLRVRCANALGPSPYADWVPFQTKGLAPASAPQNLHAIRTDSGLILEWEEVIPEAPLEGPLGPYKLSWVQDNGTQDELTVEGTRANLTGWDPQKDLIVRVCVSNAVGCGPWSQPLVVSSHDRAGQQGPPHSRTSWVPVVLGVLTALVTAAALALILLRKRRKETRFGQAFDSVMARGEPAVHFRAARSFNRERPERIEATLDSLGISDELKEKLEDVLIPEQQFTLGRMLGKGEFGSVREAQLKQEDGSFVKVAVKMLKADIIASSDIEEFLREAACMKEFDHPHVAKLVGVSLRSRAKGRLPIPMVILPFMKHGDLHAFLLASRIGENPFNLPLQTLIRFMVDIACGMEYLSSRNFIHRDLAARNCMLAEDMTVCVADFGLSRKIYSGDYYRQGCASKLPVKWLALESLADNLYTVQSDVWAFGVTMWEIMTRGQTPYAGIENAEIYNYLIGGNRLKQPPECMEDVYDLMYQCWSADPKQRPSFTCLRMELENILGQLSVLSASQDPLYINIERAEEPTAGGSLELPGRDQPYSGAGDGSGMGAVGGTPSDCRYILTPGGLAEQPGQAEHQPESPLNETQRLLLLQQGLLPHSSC

[8] = molecular target: Cell division cycle 7-related protein kinase (Homo sapiens, UniProt O00311);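 further: value obtained from a kinome-wide kinase panel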
[9] = molecular target: Proto-oncogene tyrosine-protein kinase ROS (Homo sapiens, UniProt P08922);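 further: ROS1 tested as one member of a kinome-wide kinase panel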
[10] = molecular target: Calcium/calmodulin-dependent protein kinase type II subunit gamma (Homo sapiens, UniProt Q13555)
[11] = molecular target: Macrophage colony-stimulating factor 1 receptor (Homo sapiens, UniProt P07333);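 further: value comes from the Navigating the Kinome screening panel, CSF1R member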
[12] = molecular target: MAP kinase-activated protein kinase 3 (Homo sapiens, UniProt Q16644);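 further: value comes from a kinome-wide profiling panel in which MAPKAPK3 is one of the panel members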
Chain of MAP kinase-activated protein kinase 3 (Q16644 whole entry): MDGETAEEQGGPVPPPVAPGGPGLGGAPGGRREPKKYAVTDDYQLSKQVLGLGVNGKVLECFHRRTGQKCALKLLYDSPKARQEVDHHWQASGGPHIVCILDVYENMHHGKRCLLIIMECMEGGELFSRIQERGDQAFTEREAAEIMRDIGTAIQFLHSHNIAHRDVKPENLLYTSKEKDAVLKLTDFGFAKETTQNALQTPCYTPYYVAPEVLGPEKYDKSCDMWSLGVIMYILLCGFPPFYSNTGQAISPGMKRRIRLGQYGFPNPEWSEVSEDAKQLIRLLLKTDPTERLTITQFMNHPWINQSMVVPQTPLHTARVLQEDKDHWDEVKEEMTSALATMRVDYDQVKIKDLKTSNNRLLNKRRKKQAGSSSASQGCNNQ

[13] = molecular target: Casein kinase II subunit alpha (Homo sapiens, UniProt P68400)
[14] = molecular target: Maternal embryonic leucine zipper kinase (Homo sapiens, UniProt Q14680)
Chain of Maternal embryonic leucine zipper kinase (Q14680 whole entry): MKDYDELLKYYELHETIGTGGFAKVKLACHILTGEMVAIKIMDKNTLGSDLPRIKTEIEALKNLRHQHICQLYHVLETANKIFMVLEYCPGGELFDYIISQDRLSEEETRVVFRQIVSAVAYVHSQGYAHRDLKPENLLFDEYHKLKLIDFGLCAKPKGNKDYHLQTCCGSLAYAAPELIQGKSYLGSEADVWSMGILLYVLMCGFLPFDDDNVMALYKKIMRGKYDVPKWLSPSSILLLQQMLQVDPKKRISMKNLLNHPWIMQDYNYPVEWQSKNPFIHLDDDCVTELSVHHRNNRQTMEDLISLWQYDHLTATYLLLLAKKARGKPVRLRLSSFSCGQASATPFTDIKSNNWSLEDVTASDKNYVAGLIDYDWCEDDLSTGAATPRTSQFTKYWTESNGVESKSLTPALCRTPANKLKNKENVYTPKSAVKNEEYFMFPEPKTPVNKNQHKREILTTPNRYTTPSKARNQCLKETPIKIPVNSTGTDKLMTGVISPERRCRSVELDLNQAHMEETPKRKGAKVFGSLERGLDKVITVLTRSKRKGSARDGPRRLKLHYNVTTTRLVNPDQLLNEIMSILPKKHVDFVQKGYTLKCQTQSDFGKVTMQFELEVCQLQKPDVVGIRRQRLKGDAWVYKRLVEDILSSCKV

[15] = molecular target: Tyrosine-protein kinase JAK2 (Homo sapiens, UniProt O60674);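 further: JAK2 tested as one member of a kinase panel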
[16] = molecular target: Mitogen-activated protein kinase kinase kinase kinase 4 (Homo sapiens, UniProt O95819)
[17] = molecular target: Serine/threonine-protein kinase BRSK1 (Homo sapiens, UniProt Q8TDC3);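 further: measured within a kinome-wide kinase panel, with the target listed as KIAA1811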
Chain of Serine/threonine-protein kinase BRSK1 (Q8TDC3 whole entry): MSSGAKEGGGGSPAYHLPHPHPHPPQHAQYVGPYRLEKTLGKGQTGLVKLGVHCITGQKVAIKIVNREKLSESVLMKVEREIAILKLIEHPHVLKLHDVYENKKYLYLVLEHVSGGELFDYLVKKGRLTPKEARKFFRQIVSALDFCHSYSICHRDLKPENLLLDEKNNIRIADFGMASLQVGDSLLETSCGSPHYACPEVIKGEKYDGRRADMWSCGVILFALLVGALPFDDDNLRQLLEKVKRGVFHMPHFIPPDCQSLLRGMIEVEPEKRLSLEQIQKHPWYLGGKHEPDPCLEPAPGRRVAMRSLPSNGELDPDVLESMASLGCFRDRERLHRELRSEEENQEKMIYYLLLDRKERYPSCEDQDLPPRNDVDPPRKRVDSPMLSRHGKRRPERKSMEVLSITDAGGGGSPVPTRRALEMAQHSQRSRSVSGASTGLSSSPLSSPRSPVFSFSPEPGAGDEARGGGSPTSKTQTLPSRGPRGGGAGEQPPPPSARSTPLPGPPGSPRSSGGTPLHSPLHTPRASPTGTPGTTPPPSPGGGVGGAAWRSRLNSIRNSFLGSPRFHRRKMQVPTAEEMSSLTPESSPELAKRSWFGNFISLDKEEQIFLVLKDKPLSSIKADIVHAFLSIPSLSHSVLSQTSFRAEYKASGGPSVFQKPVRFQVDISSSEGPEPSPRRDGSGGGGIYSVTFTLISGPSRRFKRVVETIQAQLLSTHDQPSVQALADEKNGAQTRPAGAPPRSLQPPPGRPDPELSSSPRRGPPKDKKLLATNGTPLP

[18] = molecular target: Hepatocyte growth factor receptor (Homo sapiens, UniProt P08581);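 further: kinase panel profiling across the kinome, with MET as the panel member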
[19] = molecular target: Tyrosine-protein kinase Blk (Homo sapiens, UniProt P51451);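 further: obtained as one member of a kinome-wide kinase assay panel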
[20] = molecular target: Rho-associated protein kinase 1 (Homo sapiens, UniProt Q13464);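 further: measured within a broad kinome-wide panel profiling many kinases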
Chain of Rho-associated protein kinase 1 (Q13464 whole entry): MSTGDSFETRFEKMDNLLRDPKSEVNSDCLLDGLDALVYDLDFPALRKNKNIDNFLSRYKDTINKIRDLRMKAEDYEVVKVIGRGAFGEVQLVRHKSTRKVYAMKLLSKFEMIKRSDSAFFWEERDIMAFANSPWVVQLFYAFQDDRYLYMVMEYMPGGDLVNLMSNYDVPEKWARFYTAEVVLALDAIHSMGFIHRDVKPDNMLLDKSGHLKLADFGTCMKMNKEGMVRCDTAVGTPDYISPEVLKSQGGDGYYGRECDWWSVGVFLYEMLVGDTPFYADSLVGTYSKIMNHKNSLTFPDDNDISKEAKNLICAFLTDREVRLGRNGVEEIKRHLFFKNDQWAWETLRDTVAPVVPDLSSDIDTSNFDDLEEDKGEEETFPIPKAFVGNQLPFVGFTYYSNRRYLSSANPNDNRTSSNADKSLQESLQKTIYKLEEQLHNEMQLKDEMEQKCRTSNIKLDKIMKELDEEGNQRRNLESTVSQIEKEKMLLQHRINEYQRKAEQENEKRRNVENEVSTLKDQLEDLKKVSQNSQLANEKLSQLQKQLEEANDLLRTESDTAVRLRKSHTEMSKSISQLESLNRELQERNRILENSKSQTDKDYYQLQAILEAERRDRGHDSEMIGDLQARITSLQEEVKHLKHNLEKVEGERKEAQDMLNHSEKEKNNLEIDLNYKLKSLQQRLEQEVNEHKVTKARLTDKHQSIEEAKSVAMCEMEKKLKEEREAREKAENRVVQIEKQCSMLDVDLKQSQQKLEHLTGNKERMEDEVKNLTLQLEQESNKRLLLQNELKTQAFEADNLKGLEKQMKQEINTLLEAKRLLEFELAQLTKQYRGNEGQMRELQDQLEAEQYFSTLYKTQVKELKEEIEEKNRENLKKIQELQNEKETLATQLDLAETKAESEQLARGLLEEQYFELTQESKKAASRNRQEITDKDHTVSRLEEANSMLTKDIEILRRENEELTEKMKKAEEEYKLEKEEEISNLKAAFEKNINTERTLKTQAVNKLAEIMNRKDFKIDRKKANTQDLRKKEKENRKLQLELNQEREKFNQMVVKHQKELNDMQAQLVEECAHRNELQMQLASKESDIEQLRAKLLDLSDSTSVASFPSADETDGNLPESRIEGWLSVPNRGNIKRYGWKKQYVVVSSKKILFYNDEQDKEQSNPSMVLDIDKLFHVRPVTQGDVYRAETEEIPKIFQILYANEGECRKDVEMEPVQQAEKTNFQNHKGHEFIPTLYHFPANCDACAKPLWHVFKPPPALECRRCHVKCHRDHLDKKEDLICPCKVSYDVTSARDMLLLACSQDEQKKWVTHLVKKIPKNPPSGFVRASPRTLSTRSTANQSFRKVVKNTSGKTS

[21] = molecular target: Calcium/calmodulin-dependent protein kinase type 1 (Homo sapiens, UniProt Q14012)
Chain of Calcium/calmodulin-dependent protein kinase type 1 (Q14012 whole entry): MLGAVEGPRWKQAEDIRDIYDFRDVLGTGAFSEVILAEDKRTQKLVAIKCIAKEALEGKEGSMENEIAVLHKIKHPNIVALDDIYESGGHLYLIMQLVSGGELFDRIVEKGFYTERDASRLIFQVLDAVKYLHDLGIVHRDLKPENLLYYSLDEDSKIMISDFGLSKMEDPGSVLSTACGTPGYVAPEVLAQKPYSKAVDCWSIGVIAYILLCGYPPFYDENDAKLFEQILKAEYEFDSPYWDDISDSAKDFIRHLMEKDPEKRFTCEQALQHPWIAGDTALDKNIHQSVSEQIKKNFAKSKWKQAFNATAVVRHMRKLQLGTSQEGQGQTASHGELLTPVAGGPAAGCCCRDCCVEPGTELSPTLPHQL

[22] = molecular target: Platelet-derived growth factor receptor alpha (Homo sapiens, UniProt P16234); assay: Navigating the Kinome. Panel member name: PDGFRA
[23] = molecular target: Cyclin-dependent kinase 9 (Homo sapiens, UniProt P50750);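 further: value from the CDK9 entry of a kinome-spanning kinase panel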

COC(=O)CCS(=O)(=O)c1nc(-c2ccccc2)cc(C(F)(F)F)n1
EC50 [1]: 9590 nM (inconclusive)

O=C(O)c1ccc(NC2=C(Cl)C(=O)c3ccccc3C2=O)cc1
CC50 (Vero): 28300 nM (active) | IC50 (Genome polyprotein): 7760 nM (active) | EC50 [1]: 6240 nM (active)

Cc1ccc2nccc(NC(=O)Nc3cccc(C(F)(F)F)n3)c2c1
Ki [2]: 100 nM (active) | Ki [3]: > 2510 nM (inactive) | Ki [4]: > 5010 nM (inactive) | Ki [5]: > 3980 nM (inactive) | Ki [6]: > 7940 nM (inactive) | Ki [7]: > 2510 nM (inactive) | Ki [8]: > 1260 nM (inactive) | Ki [9]: > 2000 nM (inactive) | Ki [10]: > 6310 nM (inactive) | Ki [11]: > 2510 nM (inactive) | Ki [12]: > 10000 nM (inactive) | Ki [13]: 251 nM (active) | Ki [14]: > 1580 nM (inactive) | Ki [15]: > 2000 nM (inactive) | Ki [16]: > 2510 nM (inactive) | Ki [17]: > 10000 nM (inactive) | Ki [18]: > 3160 nM (inactive) | Ki [19]: > 1580 nM (inactive) | Ki [20]: > 6310 nM (inactive) | Ki [21]: > 3160 nM (inactive)

Cc1nn(C)c2sc3c(=O)[nH]cnc3c12
Ki [22]: 100000 nM (active) | Ki [11]: > 63100 nM (inactive) | Ki [18]: > 31600 nM (inactive) | Ki [23]: > 63100 nM (inactive)

Cc1c(/N=C2\C=CC(=O)c3ccccc32)c(=O)n(-c2ccccc2)n1C
CC50 (Vero): 20600 nM (active) | IC50 (Genome polyprotein): 88600 nM (active)

COc1cc2c(cc1F)C(c1ccccc1Cl)=Nc1c(n[nH]c1C)N2 [RG-1530]
Ki [2]: 79.4 nM (active) | Ki [22]: 316 nM (active) | Ki [3]: > 1580 nM (inactive) | Ki [4]: 3160 nM (active) | Ki [5]: 2000 nM (active) | Ki [6]: > 7940 nM (inactive) | Ki [7]: > 2510 nM (inactive) | Ki [8]: > 1260 nM (inactive) | Ki [9]: 20 nM (active) | Ki [10]: > 6310 nM (inactive) | Ki [12]: > 10000 nM (inactive) | Ki [13]: 2510 nM (active) | Ki [14]: 1260 nM (active) | Ki [15]: 126 nM (active) | Ki [16]: > 3980 nM (inactive) | Ki [17]: 1260 nM (active) | Ki [23]: > 1580 nM (inactive) | Ki [19]: 63.1 nM (active) | Ki [20]: > 2510 nM (inactive) | Ki [21]: > 3160 nM (inactive)

Reference: ChEMBL document CHEMBL1201862, “PubChem BioAssay data set” (2004)
